These are literature values, as cited in paper PMC11675001, “Monovalent and Divalent Designs of Copper Radiotheranostics Targeting Fibroblast Activation Protein in Cancer” (Cancers, 2024).

The conditions of data set [1]: after 3 h; ref European Journal of Nuclear Medicine and Molecular Imaging (2022): 1-11 [3]; Pharmaceuticals 16, no. 8 (2023): 1138 [4].
For data set [2] the following is noted: ref European Journal of Nuclear Medicine and Molecular Imaging (2022): 1-11 [3]; Pharmaceuticals 16, no. 8 (2023): 1138 [4].

Consider `CN(CCCN1CCN(C(=O)CN2CCN(CC(=O)[O-])CCN(CC(=O)[O-])CCN(CC(=O)[O-])CC2)CC1)c1ccc2nccc(C(=O)NCC(=O)N3CC(F)(F)C[C@H]3C#N)c2c1.[68Ga+3]` [[68Ga]Ga-FAPI-46], for which the Stability in data set [1] is listed as > 95.3%. For the same compound, in data set [2], the “Partition coefficient (LogP)” value is −3.57.
